# Active and inactive are the calls of the source.
# What was measured:
# [1] = target: G-protein coupled receptor 55 (Homo sapiens, UniProt Q9Y2T6); experiment: inhibition of LPI-stimulated GPR55 beta-arrestin translocation – imaging, U2OS, beta-arrestin-GFP, LPI agonist, primary screen (AID 2013); type: functional;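 also: antagonist potency measured as reduced agonist-driven arrestin aggregation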
# Bcl-2-related protein A1 = target: T1, Bcl-2-related protein A1 (Mus musculus, UniProt Q07440); type: functional;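 also: confirmatory dose–response counterscreen on Bfl-1, used to check hits from a UBC13 polyubiquitin inhibitor campaign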
# T1 sequence (Q07440 whole entry): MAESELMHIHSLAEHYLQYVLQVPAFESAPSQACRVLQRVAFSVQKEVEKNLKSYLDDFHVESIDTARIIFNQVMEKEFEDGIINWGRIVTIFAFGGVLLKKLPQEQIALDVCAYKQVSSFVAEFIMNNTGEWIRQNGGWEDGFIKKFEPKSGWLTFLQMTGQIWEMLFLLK
# [2] = target: T2, Ubiquitin-conjugating enzyme E2 N (Homo sapiens, UniProt P61088); type: functional
# T2 sequence (P61088 whole entry): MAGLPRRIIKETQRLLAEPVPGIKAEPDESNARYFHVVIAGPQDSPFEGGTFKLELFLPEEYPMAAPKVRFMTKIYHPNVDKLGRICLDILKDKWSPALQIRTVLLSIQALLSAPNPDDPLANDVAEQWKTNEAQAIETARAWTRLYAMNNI
# [3] = target: T2, Ubiquitin-conjugating enzyme E2 N; type: functional; remark: listed apart in the source
# [4] = target: Peroxisome proliferator-activated receptor gamma/Nuclear receptor coactivator 3 (Homo sapiens, UniProt P37231); experiment: TR-FRET dose response biochemical High Throughput Screening assay for agonists of the steroid receptor coactivator 3 (SRC-3) recruitment by the peroxisome proliferator-activated receptor gamma (PPAR gamma): non-selective agonists. [Related pubchem assays: 1301 (Confirmation screen.), 1048 (Primary screen.)]; type: functional
# [5] = target: Peroxisome proliferator-activated receptor gamma/Nuclear receptor coactivator 2 (Homo sapiens, UniProt P37231); experiment: (§1) TR-FRET dose response biochemical High Throughput Screening assay for agonists of the steroid receptor coactivator 2 (SRC-2) recruitment by the peroxisome proliferator-activated receptor gamma (PPAR gamma): non-selective agonists. [Related pubchem assays: 1297, 1032 ]; type: functional
# [6] = target: Peroxisome proliferator-activated receptor gamma/Nuclear receptor coactivator 1 (Homo sapiens, UniProt P37231); experiment: as §1, with “1 (SRC-1)” for “2 (SRC-2)”, “assays (depositor defined):AID1300, AID1808, AID504735, AID631]” for “assays: 1297, 1032 ]”; type: protein assay
# Vero = experiment: cells; type: functional, cell-based; conditions: Chlorocebus sabaeus
# [7] = viability of HCT116 lacking mutant beta-catenin – cell-based, human colon tumor, dose response (AID 1045); type: functional;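 also: HCT116 colon tumor cells with beta catenin knocked out; cells exposed to compound for 60 hours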
# [8] = viability of PTEN-deleted HCT116 cells – cell-based, HCT116 PTEN knockout, dose response (AID 1047); type: functional;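 also: HCT116 colon tumor cells with PTEN knocked out; cells exposed to compound for 60 hours before readout; potency for loss of cell viability measured by luminescence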
# [9] = NIH3T3 cell viability loss – ATP luminescence, mouse fibroblasts, counter-screen, dose response (AID 2010); type: functional, cell-based;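 also: cells exposed to compound for about 90 hours before reading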
# [10] = Trypanosoma cruzi growth suppression in host cells – NIH3T3 host cells, beta-gal luminescence, confirmation (AID 2044); type: functional, cell-based;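 also: intracellular parasites grown in NIH/3T3 mouse fibroblasts as host cells; luminescent beta-galactosidase reporter signal from transgenic T. cruzi replicating inside host cells; inhibitors lower the luminescence signal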
# Streptokinase A = target: T3, Streptokinase A (Streptococcus pyogenes serotype M1, UniProt P10520); experiment: viability-normalized secreted streptokinase activity reduction – plasminogen activation absorbance, OD405, dose response (AID 1914); type: functional, Streptococcus pyogenes M1 GAS;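 also: secreted streptokinase activity via plasminogen activation per viability signal from cell pellet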
# T3 sequence (P10520 whole entry): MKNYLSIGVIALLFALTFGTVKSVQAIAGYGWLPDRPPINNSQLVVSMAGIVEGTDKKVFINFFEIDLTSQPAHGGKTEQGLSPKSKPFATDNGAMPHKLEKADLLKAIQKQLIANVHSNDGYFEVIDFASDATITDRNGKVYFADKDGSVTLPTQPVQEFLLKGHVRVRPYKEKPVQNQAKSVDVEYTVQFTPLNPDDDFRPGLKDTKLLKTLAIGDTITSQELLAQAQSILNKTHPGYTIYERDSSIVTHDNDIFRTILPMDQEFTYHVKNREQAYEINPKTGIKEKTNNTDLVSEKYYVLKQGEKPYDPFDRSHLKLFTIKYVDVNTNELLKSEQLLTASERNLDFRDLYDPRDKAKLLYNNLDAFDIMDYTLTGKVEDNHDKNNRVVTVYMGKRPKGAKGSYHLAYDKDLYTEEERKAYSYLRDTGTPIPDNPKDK
# Streptococcus = experiment: GAS UMAA2166 growth inhibition – luminescence, BacTiterGlo, counter-screen for streptokinase expression inhibitor project, dose response (AID 1915); type: functional, organism-based;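 also: potency for reduction of bacterial viability or growth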
# [11] = test system: Streptococcus sp. 'group A'; experiment: Streptococcus pyogenes SK(-)GAS viability under kanamycin – luminescence, BacTiterGlo, confirmation, counter-screen for streptokinase expression inhibitor project, dose response (AID 1900); type: functional, organism-based
# Fatty acid synthase = Fatty acid synthase (Homo sapiens, UniProt P49327); experiment: inhibition of human FAS-TE enzyme activity – biochemical, kinetic fluorescence intensity, dose response (AID 624326); type: functional;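 also: rate of fluorescence rise from hydrolysis of a fluorogenic O-methyl fluorescein ester substrate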
# H9c2 = experiment: cells; type: functional, cell-based; conditions: Rattus norvegicus, H9c2, Myocardium;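 also: confirmatory concentration-response retest of ultra-high-throughput screening hits for modulation of myocardial damage; cell death induced by hydrogen peroxide oxidative stress; compound pretreatment for 60 min then peroxide exposure for 2 h; potency is for protecting the cells against peroxide damage rather than for killing them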
# Hexokinase = target: T4, Hexokinase (Trypanosoma brucei, UniProt Q38C41); experiment: Confirmation assay for inhibitors of Trypanosoma brucei hexokinase 1-Analogue-first series. [Related pubchem assays (depositor defined):AID1430, AID1632, AID2516, AID2560, AID2579, AID2600, AID449725, AID492951]; type: functional
# T4 sequence (Q38C41 whole entry): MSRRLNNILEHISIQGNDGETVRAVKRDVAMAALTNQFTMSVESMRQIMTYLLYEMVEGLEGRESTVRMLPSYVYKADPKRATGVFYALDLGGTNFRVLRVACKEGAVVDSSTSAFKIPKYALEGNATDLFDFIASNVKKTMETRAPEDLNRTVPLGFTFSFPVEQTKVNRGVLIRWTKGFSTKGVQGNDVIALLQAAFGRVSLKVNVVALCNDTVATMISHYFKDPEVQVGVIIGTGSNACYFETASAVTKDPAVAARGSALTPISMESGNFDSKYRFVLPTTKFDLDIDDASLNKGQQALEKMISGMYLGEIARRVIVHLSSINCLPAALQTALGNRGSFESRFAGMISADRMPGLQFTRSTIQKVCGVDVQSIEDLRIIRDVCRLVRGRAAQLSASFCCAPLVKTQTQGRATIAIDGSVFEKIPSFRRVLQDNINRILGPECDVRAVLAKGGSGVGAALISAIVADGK
# [12] = target: T5, Alkaline phosphatase, tissue-nonspecific isozyme (Homo sapiens, UniProt P05186); experiment: potency against alkaline phosphatase TNAP – biochemical, luminescent, dose response, SAR follow-up (AID 1056)
# T5 sequence (P05186 whole entry): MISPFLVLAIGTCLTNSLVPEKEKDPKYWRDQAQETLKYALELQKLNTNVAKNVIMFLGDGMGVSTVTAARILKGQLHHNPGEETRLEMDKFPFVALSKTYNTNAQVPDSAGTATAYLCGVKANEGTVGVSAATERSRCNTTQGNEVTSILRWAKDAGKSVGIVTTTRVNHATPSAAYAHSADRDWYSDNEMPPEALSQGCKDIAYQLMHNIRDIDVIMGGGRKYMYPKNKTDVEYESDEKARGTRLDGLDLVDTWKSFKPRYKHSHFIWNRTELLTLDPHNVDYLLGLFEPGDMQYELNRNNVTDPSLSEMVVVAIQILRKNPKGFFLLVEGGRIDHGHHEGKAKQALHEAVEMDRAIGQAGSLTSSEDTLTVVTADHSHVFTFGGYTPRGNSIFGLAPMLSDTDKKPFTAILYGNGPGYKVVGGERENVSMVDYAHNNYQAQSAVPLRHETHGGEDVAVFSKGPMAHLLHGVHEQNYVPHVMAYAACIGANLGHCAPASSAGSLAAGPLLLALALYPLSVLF
# Hexokinase HKDC1 = target: T6, Hexokinase HKDC1 (Homo sapiens, UniProt Q2TB90); experiment: activation of HKDC1 glucose phosphorylation – biochemical, W721R variant, dose response (AID 504730); type: functional
# T6 sequence (Q2TB90 whole entry): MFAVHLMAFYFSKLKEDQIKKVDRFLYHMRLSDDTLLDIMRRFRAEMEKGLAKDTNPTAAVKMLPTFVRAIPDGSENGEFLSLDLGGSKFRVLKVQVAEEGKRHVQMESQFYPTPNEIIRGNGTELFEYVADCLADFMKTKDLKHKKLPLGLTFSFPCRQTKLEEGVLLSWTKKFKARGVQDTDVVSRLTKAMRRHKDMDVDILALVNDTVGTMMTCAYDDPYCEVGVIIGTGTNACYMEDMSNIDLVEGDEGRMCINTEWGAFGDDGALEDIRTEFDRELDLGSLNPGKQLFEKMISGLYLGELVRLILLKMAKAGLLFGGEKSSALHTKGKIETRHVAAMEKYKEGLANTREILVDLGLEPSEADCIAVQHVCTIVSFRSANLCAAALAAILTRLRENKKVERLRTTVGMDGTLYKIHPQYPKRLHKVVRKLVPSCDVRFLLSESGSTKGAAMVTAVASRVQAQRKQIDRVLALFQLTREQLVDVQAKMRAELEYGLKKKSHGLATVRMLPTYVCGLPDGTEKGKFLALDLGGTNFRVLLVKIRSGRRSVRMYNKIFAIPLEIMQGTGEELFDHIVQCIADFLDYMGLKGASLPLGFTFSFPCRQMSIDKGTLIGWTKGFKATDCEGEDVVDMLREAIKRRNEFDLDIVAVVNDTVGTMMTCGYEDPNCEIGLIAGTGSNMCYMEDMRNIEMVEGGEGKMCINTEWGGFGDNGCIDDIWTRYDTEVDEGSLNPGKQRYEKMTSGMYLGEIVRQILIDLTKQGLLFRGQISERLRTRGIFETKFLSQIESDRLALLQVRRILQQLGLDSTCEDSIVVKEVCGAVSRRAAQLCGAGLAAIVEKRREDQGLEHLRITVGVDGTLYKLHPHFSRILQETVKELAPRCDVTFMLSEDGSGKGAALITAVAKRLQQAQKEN
# Hexokinase-1 = target: T7, Hexokinase-1 (Homo sapiens, UniProt P19367); experiment: HK1 enzyme activation by HKDC1 hits – biochemical, selectivity assay for HKDC1 activator project, dose response (AID 504762); type: functional
# T7 sequence (P19367 whole entry): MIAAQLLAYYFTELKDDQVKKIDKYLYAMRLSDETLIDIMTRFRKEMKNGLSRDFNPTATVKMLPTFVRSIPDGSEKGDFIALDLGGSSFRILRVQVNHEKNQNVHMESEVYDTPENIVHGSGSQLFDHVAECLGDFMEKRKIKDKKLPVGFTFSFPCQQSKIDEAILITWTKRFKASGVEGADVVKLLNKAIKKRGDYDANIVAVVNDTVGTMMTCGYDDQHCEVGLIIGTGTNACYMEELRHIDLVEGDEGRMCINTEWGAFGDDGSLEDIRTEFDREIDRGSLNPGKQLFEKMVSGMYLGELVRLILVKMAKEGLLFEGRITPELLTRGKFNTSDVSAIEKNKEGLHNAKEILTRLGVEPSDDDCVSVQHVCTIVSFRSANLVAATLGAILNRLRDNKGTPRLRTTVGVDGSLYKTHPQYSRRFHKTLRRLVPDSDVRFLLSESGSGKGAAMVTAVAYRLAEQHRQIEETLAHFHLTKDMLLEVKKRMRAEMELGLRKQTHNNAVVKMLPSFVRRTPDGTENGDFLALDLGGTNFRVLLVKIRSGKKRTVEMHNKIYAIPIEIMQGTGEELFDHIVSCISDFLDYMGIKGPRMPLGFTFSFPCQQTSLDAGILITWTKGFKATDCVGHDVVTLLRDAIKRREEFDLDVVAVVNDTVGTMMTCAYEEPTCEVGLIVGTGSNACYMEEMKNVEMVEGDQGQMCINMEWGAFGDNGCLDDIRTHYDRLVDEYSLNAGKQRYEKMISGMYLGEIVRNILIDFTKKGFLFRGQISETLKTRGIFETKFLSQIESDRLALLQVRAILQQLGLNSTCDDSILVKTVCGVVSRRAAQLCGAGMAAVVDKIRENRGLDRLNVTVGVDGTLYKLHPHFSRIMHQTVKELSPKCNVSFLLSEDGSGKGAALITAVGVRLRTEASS
# Nonstructural protein 1 = Nonstructural protein 1 (Influenza A virus, UniProt Q194T2); type: functional, Influenza A virus (A/California/07/2009(H1N1))
# Sequence of Nonstructural protein 1 (Q194T2 whole entry): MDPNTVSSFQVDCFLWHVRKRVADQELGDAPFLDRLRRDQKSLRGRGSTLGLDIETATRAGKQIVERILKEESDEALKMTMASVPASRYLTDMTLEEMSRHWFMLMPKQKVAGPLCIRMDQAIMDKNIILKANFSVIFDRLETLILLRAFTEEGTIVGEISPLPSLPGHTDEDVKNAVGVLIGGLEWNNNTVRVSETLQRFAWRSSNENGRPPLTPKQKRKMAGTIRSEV
# Sequence of Peroxisome proliferator-activated receptor gamma/Nuclear receptor coactivator 2 (P37231 whole entry): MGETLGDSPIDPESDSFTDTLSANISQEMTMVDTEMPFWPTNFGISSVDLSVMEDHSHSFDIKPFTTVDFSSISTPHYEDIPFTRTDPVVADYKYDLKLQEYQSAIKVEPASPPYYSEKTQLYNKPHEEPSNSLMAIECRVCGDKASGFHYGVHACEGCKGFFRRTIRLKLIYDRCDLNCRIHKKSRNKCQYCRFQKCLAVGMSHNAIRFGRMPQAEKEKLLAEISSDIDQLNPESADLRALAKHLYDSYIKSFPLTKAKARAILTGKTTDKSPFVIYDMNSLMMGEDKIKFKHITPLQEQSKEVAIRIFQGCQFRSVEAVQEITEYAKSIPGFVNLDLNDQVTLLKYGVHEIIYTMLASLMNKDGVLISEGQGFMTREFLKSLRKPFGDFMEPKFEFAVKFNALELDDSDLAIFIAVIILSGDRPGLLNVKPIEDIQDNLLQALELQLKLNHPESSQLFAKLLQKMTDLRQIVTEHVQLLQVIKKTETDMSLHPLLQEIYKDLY
# Sequence of Peroxisome proliferator-activated receptor gamma/Nuclear receptor coactivator 2 (Q15596 whole entry, further chain): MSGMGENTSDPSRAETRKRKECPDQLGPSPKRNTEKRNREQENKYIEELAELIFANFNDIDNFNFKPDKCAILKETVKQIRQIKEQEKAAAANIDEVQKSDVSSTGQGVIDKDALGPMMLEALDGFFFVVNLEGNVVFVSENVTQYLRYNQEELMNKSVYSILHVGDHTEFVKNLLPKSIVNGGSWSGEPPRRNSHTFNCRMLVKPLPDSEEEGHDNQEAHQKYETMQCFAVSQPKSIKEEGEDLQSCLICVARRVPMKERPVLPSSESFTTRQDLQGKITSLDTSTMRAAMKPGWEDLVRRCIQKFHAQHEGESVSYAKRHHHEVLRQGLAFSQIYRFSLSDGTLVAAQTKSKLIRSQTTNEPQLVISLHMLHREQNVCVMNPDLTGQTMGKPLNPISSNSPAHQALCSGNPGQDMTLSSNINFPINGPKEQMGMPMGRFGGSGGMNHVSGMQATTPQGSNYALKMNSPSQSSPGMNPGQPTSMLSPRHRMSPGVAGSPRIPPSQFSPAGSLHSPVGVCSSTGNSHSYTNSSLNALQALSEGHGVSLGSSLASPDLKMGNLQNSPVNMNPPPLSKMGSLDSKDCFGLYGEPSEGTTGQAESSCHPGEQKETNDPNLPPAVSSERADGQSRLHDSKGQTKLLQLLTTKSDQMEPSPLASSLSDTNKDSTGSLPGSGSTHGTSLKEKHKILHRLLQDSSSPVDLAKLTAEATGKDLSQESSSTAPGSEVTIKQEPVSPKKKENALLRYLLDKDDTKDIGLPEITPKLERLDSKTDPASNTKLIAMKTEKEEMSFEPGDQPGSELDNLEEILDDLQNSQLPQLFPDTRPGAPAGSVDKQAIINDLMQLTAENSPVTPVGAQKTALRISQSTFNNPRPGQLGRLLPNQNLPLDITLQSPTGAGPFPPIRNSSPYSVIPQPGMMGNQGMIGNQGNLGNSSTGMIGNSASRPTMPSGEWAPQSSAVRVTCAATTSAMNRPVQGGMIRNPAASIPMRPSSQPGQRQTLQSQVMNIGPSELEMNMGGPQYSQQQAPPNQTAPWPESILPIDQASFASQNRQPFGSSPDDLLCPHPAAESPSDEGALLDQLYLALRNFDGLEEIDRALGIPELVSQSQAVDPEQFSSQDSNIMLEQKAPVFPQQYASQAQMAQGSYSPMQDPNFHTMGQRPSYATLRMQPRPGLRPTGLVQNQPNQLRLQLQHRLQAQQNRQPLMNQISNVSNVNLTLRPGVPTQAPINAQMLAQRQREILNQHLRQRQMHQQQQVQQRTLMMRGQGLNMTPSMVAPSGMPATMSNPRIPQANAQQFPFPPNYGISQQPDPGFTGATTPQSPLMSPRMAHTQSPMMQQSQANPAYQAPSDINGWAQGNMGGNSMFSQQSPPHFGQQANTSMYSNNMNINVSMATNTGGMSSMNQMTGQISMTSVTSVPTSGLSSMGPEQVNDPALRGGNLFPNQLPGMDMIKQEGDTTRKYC
# Sequence of Peroxisome proliferator-activated receptor gamma/Nuclear receptor coactivator 1 (P37231 whole entry): as the sequence (P37231 whole entry) above
# Sequence of Peroxisome proliferator-activated receptor gamma/Nuclear receptor coactivator 1 (Q15788 whole entry, further chain): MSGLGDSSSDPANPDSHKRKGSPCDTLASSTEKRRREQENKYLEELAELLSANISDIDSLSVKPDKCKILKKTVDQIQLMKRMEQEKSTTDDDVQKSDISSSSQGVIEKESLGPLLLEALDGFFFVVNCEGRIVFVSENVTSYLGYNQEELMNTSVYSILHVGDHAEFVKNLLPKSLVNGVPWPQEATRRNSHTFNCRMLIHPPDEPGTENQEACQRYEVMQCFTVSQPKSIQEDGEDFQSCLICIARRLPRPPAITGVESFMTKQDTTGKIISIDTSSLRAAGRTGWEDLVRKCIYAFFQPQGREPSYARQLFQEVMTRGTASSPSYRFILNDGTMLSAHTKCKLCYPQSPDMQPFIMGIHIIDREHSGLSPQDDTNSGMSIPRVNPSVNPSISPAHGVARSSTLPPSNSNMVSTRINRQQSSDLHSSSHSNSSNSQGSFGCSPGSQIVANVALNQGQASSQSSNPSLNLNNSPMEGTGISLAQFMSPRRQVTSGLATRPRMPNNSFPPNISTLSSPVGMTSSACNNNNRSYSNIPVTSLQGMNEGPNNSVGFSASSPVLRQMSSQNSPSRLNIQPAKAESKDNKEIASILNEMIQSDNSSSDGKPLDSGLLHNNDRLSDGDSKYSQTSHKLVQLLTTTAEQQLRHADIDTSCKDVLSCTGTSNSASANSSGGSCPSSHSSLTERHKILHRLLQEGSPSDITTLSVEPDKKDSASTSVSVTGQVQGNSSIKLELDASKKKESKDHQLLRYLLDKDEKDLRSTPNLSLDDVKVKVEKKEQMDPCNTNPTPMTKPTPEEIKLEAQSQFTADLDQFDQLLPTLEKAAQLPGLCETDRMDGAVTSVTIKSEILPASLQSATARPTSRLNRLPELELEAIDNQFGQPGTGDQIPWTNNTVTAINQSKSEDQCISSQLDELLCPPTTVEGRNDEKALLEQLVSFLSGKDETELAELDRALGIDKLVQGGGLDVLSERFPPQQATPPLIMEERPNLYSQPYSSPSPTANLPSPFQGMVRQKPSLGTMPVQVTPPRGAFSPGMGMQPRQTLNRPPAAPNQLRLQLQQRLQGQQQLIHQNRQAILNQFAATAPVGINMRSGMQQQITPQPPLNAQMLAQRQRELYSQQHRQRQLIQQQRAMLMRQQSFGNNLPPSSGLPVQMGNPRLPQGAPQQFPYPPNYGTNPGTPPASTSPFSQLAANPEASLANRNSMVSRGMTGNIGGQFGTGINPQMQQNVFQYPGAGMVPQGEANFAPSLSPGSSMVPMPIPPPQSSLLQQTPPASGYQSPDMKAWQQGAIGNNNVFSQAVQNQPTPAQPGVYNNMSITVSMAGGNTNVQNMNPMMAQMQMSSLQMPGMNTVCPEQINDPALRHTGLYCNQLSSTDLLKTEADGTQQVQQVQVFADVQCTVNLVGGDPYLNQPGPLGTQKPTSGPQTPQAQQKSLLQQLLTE
# Sequence of G-protein coupled receptor 55 (Q9Y2T6 whole entry): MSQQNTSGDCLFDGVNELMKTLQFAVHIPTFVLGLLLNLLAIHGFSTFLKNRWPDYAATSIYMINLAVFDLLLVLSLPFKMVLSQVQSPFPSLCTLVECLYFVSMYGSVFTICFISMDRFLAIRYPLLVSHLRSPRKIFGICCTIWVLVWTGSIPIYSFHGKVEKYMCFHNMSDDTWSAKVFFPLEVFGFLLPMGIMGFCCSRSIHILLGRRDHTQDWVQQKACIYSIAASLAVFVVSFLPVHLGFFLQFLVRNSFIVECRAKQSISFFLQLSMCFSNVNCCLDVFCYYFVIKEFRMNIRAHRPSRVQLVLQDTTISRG
structure (smiles),measurement,setting,value
Nc1ccc(N2CCCCC2)c(S(=O)(=O)Nc2ccccc2Cl)c1,IC50,[1],3.53 µM (active)
O=C(NNC(=O)c1nn(-c2ccc(F)cc2)ccc1=O)c1ccccc1Cl,IC50,Bcl-2-related protein A1,> 20 µM (inactive)
same,IC50,[2],4.29 µM (active)
same,IC50,[3],9.9 µM (active)
CCOC(=O)N1CCC(NC(=O)CSc2cc(=O)n(CC)c3ccccc23)CC1,EC50,[4],> 79.4 µM (not active)
same,EC50,[5],> 79.4 µM (not active)
same,EC50,[6],> 79.4 µM (inactive)
COc1cccc(-c2ccc(NC(=O)C3CCCN(Cc4cnn(C)c4)C3)cc2)c1 (centres undefined),IC50,Vero,21.9 µM (active)
CCOc1ccccc1NC(=O)C(OC(=O)c1ccc(O)cc1)c1ccccc1 (centres undefined),EC50,[7],680 µM (active)
same,IC50,Bcl-2-related protein A1,> 20 µM (inactive)
same,EC50,[8],729 µM (active)
same,IC50,[2],> 20 µM (inactive)
same,IC50,[3],15.2 µM (active)
O=C(NC12CC3CC(CC(C3)C1)C2)c1ccc(-c2ccc(Cl)cc2)o1,EC50,[9],> 60 µM (not active)
same,EC50,[10],2.11 µM (active)
same,IC50,[1],0.598 µM (active)
COc1ccc(C(=O)NC(=S)N(Cc2ccccc2)Cc2ccccc2)cc1,EC50,Streptokinase A,> 150 µM (not active)
same,EC50,Streptococcus,14.5 µM (active)
same,IC50,[1],4.36 µM (active)
same,EC50,[11],0.883 µM (active)
CCOC(=O)C1CCN(C(=O)CSc2c3c(nc4ccccc24)CCC3)CC1,EC50,[4],> 79.4 µM (not active)
same,EC50,[5],> 79.4 µM (not active)
same,EC50,[6],> 79.4 µM (inactive)
O=C(Nc1nc(-c2ccc(S(=O)(=O)N3CCCC3)cc2)cs1)C1COc2ccccc2O1 (centres undefined),IC50,Fatty acid synthase,1.28 µM (active)
same,EC50,[4],> 79.4 µM (not active)
same,IC50,H9c2,> 79 µM (inactive)
same,EC50,[5],27.7 µM (not active)
same,EC50,[6],31 µM (inactive)
CC(C(=O)Nc1ccccc1)n1sc2ccccc2c1=O (centres undefined),IC50,Hexokinase,8.14 µM (active)
COc1cc(C(=O)CSc2nc(C)cc(C)n2)ccc1O,IC50,[12],> 100 µM (inactive)
S=C(NCc1ccccn1)NN=Cc1ccccn1,EC50,Hexokinase HKDC1,27.8 µM (inactive)
same,EC50,Hexokinase-1,> 80 µM (inactive)
same,IC50,Nonstructural protein 1,3.89 µM (active)
COC(=O)c1ccc(Cn2c(O)c(/N=N/C(=N)S)c3ccccc32)o1,IC50,Bcl-2-related protein A1,> 20 µM (inactive)
same,IC50,[2],> 20 µM (inactive)
same,IC50,[3],14.1 µM (active)
Nn1cnnc1N/N=C/c1cc(Br)cc(Br)c1O,EC50,Hexokinase HKDC1,> 80 µM (inactive)
same,EC50,Hexokinase-1,42.3 µM (inactive)
same,IC50,Nonstructural protein 1,10.7 µM (active)
